Results from US11530210B2, “Substituted heteroaromatic pyrazolo-pyridines and their use as GLUN2B receptor modulators” (JANSSEN PHARMACEUTICA NV, priority 2019, dated 2022).
pIC50: −log10 of the molar value. Where a name gives a salt, the structure may show the parent alone.

Target: T1, human GluN1/GluN2B NMDA receptors (Homo sapiens, UniProt Q13224)
T1 construct: expressed in transfected cells
Assay: Calcium flux (FLIPR) assay on cloned human NR1/GluN2B ion channels expressed in mammalian cells (standard and HTS variants)
Assay type: cell-based
Conditions: cells expressing human GluN1/GluN2B, glutamate and glycine co-agonists
How it was run: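 Calcium influx read by FLIPR after co-agonist addition (glycine 10 μM, glutamate near EC40) following 5 min compound preincubation, with signal normalized to control wells.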

T1 sequence (Q13224 27-1484, other chains not shown): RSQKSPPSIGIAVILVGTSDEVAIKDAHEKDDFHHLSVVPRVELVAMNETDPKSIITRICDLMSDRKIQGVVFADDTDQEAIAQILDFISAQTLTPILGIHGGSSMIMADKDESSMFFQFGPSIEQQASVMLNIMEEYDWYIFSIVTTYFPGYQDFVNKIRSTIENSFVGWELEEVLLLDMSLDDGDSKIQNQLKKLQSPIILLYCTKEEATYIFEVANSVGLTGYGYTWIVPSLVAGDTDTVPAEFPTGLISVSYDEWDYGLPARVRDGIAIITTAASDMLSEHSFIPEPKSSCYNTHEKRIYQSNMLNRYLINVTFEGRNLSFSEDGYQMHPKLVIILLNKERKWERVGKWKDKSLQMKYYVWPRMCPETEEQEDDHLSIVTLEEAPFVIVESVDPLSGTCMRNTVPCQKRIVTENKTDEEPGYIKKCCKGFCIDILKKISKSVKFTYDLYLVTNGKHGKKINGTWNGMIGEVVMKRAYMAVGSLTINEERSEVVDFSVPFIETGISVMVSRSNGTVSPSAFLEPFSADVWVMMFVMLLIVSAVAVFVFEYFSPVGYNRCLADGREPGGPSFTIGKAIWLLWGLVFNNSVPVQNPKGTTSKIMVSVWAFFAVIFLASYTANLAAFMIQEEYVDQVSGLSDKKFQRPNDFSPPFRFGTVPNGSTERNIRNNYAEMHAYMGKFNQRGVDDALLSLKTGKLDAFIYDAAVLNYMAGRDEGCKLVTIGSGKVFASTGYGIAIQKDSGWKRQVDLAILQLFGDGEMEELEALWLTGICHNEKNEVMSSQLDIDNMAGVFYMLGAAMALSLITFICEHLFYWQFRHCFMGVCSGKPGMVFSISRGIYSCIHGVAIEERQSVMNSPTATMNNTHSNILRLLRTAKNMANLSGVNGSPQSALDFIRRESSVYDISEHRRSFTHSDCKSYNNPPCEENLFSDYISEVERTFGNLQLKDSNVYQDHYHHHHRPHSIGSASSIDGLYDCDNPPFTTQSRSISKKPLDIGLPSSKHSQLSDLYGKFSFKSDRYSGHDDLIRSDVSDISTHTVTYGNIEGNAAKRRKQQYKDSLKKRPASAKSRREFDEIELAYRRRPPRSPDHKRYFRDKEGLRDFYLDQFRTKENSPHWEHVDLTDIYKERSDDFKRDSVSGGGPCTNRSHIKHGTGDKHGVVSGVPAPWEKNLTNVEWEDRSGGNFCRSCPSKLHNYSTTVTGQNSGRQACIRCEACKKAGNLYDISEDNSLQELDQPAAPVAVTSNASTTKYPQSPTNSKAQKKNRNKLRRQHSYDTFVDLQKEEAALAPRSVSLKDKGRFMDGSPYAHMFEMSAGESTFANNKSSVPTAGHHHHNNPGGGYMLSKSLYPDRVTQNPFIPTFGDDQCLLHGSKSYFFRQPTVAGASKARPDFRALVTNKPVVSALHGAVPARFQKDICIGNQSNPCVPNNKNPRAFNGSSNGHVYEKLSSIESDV

First: Cc1c(F)ccc(-c2cnc3cnn(Cc4nnc(C(F)(F)F)o4)c3c2)c1F [Example 119, 2-[[6-(2,4-Difluoro-3-methyl-phenyl)pyrazolo[4,3-b]pyridin-1-yl]methyl]-5-(trifluoromethyl)-1,3,4-oxadiazole]
Second: Cc1nnc(Cn2ncc3ncc(-c4ccc(F)c(C)c4F)cc32)s1 [Example 136, 2-[[6-(2,4-Difluoro-3-methyl-phenyl)pyrazolo[4,3-b]pyridin-1-yl]methyl]-5-methyl-1,3,4-thiadiazole]
The pIC50 of the first is 1.16 log units lower: 6.61 for the first, 7.77 for the second. The second is the more potent here.

Going from `FC(F)(F)c1cccc(-c2cnc3cnn(Cc4csnn4)c3c2)c1` [Example 120, 4-[[6-[3-(Trifluoromethyl)phenyl]pyrazolo[4,3-b]pyridin-1-yl]methyl]thiadiazole] to `Cc1cncc(Cn2ncc3ncc(-c4cccc(C(C)(F)F)c4)cc32)c1` [Example 160, 6-[3-(1,1-Difluoroethyl)phenyl]-1-[(5-methyl-3-pyridyl)methyl]pyrazolo[4,3-b]pyridine], the pIC50 rises from 6.05 to 6.95 (0.90 log units). The second is the more potent here.

First: Fc1ccc(-c2cnc3cnn(Cc4nncs4)c3c2)cc1C(F)F [Example 121, 2-[[6-[3-(Difluoromethyl)-4-fluoro-phenyl]pyrazolo[4,3-b]pyridin-1-yl]methyl]-1,3,4-thiadiazole]
Second: CCc1nnc(Cn2ncc3ncc(-c4ccc(F)c(C(F)F)c4)cc32)s1 [Example 125, 2-[[6-[3-(Difluoromethyl)-4-fluoro-phenyl]pyrazolo[4,3-b]pyridin-1-yl]methyl]-5-ethyl-1,3,4-thiadiazole]
The pIC50 of the first is 0.74 log units higher: 7.60 for the first, 6.86 for the second. The first is the more potent here.

Compared with `Cc1nnc(Cn2nc(F)c3ncc(-c4ccc(F)c(C(F)F)c4)cc32)s1` [Example 123, 2-[[6-[3-(Difluoromethyl)-4-fluoro-phenyl]-3-fluoro-pyrazolo[4,3-b]pyridin-1-yl]methyl]-5-methyl-1,3,4-thiadiazole], `Cc1nnc(Cn2nc(C)c3ncc(-c4ccc(F)c(C(F)F)c4)cc32)s1` [Example 124, 2-[[6-[3-(Difluoromethyl)-4-fluoro-phenyl]-3-methyl-pyrazolo[4,3-b]pyridin-1-yl]methyl]-5-methyl-1,3,4-thiadiazole] is 0.20 log units lower in pIC50: 7.38 for the first, 7.18 for the second.

Compared with `CNc1nnc(Cn2ncc3ncc(-c4ccc(F)c(C(F)F)c4)cc32)s1` [Example 126, 5-((6-(3-(difluoromethyl)-4-fluorophenyl)-1H-pyrazolo[4,3-b]pyridin-1-yl)methyl)-N-methyl-1,3,4-thiadiazol-2-amine], `CC(=O)Nc1nnc(Cn2ncc3ncc(-c4ccc(F)c(C(F)F)c4)cc32)s1` [Example 128, N-(5-((6-(3-(Difluoromethyl)-4-fluorophenyl)-1H-pyrazolo[4,3-b]pyridin-1-yl)methyl)-1,3,4-thiadiazol-2-yl)acetamide] is lower in pIC50: 5.79 for the first, under 5.52 for the second. The first is the more potent here.

Compared with `COc1nnc(Cn2ncc3ncc(-c4ccc(F)c(C(F)F)c4)cc32)s1` [Example 127, 2-[[6-[3-(difluoromethyl)-4-fluoro-phenyl]pyrazolo[4,3-b]pyridin-1-yl]methyl]-5-methoxy-1,3,4-thiadiazole], `Fc1ccc(-c2cnc3cnn(Cc4nnc(C(F)F)s4)c3c2)cc1C(F)F` [Example 129, 2-(Difluoromethyl)-5-[[6-[3-(difluoromethyl)-4-fluoro-phenyl]pyrazolo[4,3-b]pyridin-1-yl]methyl]-1,3,4-thiadiazole] is 1.70 log units higher in pIC50: 6.07 for the first, 7.77 for the second.

Compared with `Fc1ccc(-c2cnc3cnn(Cc4nnc(C5CC5)s4)c3c2)cc1C(F)F` [Example 130, 2-Cyclopropyl-5-[[6-[3-(difluoromethyl)-4-fluoro-phenyl]pyrazolo[4,3-b]pyridin-1-yl]methyl]-1,3,4-thiadiazole], `Cc1nnc(Cn2ncc3ncc(-c4ccc(Cl)c(C(F)F)c4)cc32)s1` [Example 131, 2-[[6-[4-Chloro-3-(difluoromethyl)phenyl]pyrazolo[4,3-b]pyridin-1-yl]methyl]-5-methyl-1,3,4-thiadiazole] is 0.33 log units higher in pIC50: 6.91 for the first, 7.24 for the second.

First: Cc1nnc(Cn2ncc3ncc(-c4ccc(F)c(C)c4)cc32)s1 [Example 132, 2-[[6-(4-Fluoro-3-methyl-phenyl)pyrazolo[4,3-b]pyridin-1-yl]methyl]-5-methyl-1,3,4-thiadiazole]
Second: Cc1nnc(Cn2ncc3ncc(-c4ccc(F)c(OC(F)F)c4)cc32)s1 [Example 133, 2-[[6-[3-(Difluoromethoxy)-4-fluoro-phenyl]pyrazolo[4,3-b]pyridin-1-yl]methyl]-5-methyl-1,3,4-thiadiazole]
The pIC50 of the first is 0.34 log units higher: 7.48 for the first, 7.14 for the second. The first is the more potent here.

Compared with `Cc1nnc(Cn2ncc3ncc(-c4ccc(Cl)c(OC(F)F)c4)cc32)s1` [Example 135, 2-[[6-[4-Chloro-3-(difluoromethoxy)phenyl]pyrazolo[4,3-b]pyridin-1-yl]methyl]-5-methyl-1,3,4-thiadiazole], `Fc1ccc(-c2cnc3cnn(Cc4cncc(OC(F)F)c4)c3c2)cc1` [Example 151, 1-[[5-(Difluoromethoxy)-3-pyridyl]methyl]-6-(4-fluorophenyl)pyrazolo[4,3-b]pyridine] is 0.94 log units lower in pIC50: 6.88 for the first, 5.94 for the second. The first is the more potent here.

`Cc1csc(-c2cnc3cnn(Cc4cccnc4)c3c2)c1` [Example 137, 6-(4-Methyl-2-thienyl)-1-(3-pyridylmethyl)pyrazolo[4,3-b]pyridine] and `Cc1ccc(-c2cnc3cnn(Cc4cccnc4)c3c2)s1` [Example 139, 6-(5-Methyl-2-thienyl)-1-(3-pyridylmethyl)pyrazolo[4,3-b]pyridine] are within 0.2 log units of each other in pIC50: 6.94 for the first, 7.05 for the second.

Going from `Cc1cncc(Cn2ncc3ncc(-c4cc(C)cs4)cc32)c1` [Example 138, 1-[(5-Methyl-3-pyridyl)methyl]-6-(4-methyl-2-thienyl)pyrazolo[4,3-b]pyridine] to `Cc1cccc(-c2cnc3cnn(Cc4cncc(F)c4)c3c2)c1` [Example 146, 1-[(5-Fluoro-3-pyridyl)methyl]-6-(m-tolyl)pyrazolo[4,3-b]pyridine], the pIC50 rises from 6.80 to 8.05 (1.25 log units). The second is the more potent here.

`N#Cc1cncc(Cn2ncc3ncc(-c4ccc(Cl)s4)cc32)c1` [Example 140, 5-[[6-(5-Chloro-2-thienyl)pyrazolo[4,3-b]pyridin-1-yl]methyl]pyridine-3-carbonitrile] and `N#Cc1cncc(Cn2ncc3ncc(-c4ccc(C(F)F)s4)cc32)c1` [Example 142, 5-[[6-[5-(Difluoromethyl)-2-thienyl]pyrazolo[4,3-b]pyridin-1-yl]methyl]pyridine-3-carbonitrile] are within 0.2 log units of each other in pIC50: 6.77 for the first, 6.66 for the second.

Going from `Clc1ccsc1-c1cnc2cnn(Cc3cccnc3)c2c1` [Example 141, 6-(3-Chloro-2-thienyl)-1-(3-pyridylmethyl)pyrazolo[4,3-b]pyridine] to `Fc1cncc(Cn2ncc3ncc(-c4ccc(Cl)cc4)cc32)c1` [Example 148, 6-(4-Chlorophenyl)-1-[(5-fluoro-3-pyridyl)methyl]pyrazolo[4,3-b]pyridine trifluoroacetate salt], the pIC50 falls from 7.21 to 6.20 (1.01 log units). The first is the more potent here.

First: Fc1ccc(Cn2ncc3ncc(-c4ccc(C(F)(F)F)s4)cc32)cn1 [Example 143, 1-((6-Fluoropyridin-3-yl)methyl)-6-(5-(trifluoromethyl)thiophen-2-yl)-1H-pyrazolo[4,3-b]pyridine]
Second: N#Cc1cncc(Cn2ncc3ncc(-c4ccc(C(F)(F)F)s4)cc32)c1 [Example 144, 5-[[6-[5-(Trifluoromethyl)-2-thienyl]pyrazolo[4,3-b]pyridin-1-yl]methyl]pyridine-3-carbonitrile]
The pIC50 of the first is 0.64 log units higher: 6.88 for the first, 6.24 for the second.

Compared with `Cc1cccc(-c2cnc3cnn(Cc4ccc(F)nc4)c3c2)c1` [Example 145, 1-[(6-Fluoro-3-pyridyl)methyl]-6-(m-tolyl)pyrazolo[4,3-b]pyridine], `COc1cccc(-c2cnc3cnn(Cc4ccc(F)nc4)c3c2)c1` [Example 155, 1-[(6-Fluoro-3-pyridyl)methyl]-6-(3-methoxyphenyl)pyrazolo[4,3-b]pyridine] is 1.66 log units lower in pIC50: 7.44 for the first, 5.78 for the second.

Compared with `Cc1cccc(-c2cnc3c(F)nn(Cc4cncc(F)c4)c3c2)c1` [Example 147, 3-Fluoro-1-[(5-fluoro-3-pyridyl)methyl]-6-(m-tolyl)pyrazolo[4,3-b]pyridine], `Fc1cncc(Cn2ncc3ncc(-c4cccc(OC(F)F)c4)cc32)c1` [Example 159, 6-[3-(Difluoromethoxy)phenyl]-1-[(5-fluoro-3-pyridyl)methyl]pyrazolo[4,3-b]pyridine] is 0.72 log units lower in pIC50: 7.32 for the first, 6.60 for the second. The first is the more potent here.

First: Fc1ccc(-c2cnc3cnn(Cc4ccccn4)c3c2)cc1 [Example 149, 6-(4-Fluorophenyl)-1-(2-pyridylmethyl)pyrazolo[4,3-b]pyridine]
Second: Fc1cccc(-c2cnc3cnn(Cc4ccccn4)c3c2)c1 [Example 152, 6-(3-Fluorophenyl)-1-(2-pyridylmethyl)pyrazolo[4,3-b]pyridine]
The pIC50 of the first is 0.20 log units lower: 5.46 for the first, 5.66 for the second.

Going from `COc1cncc(Cn2ncc3ncc(-c4ccc(F)cc4)cc32)c1` [Example 150, 6-(4-Fluorophenyl)-1-[(5-methoxy-3-pyridyl)methyl]pyrazolo[4,3-b]pyridine] to `Fc1cncc(Cn2ncc3ncc(-c4ccccc4F)cc32)c1` [Example 153, 6-(2-Fluorophenyl)-1-[(5-fluoro-3-pyridyl)methyl]pyrazolo[4,3-b]pyridine], the pIC50 falls from 6.39 to 6.14 (0.25 log units).

Compared with `COc1cccc(-c2cnc3cnn(Cc4ccccn4)c3c2)c1` [Example 154, 6-(3-Methoxyphenyl)-1-(2-pyridylmethyl)pyrazolo[4,3-b]pyridine], `FC(F)c1cccc(-c2cnc3cnn(Cc4ccccn4)c3c2)c1` [Example 156, 6-[3-(Difluoromethyl)phenyl]-1-(2-pyridylmethyl)pyrazolo[4,3-b]pyridine] is 1.00 log units higher in pIC50: 5.13 for the first, 6.13 for the second.

First: N#Cc1cncc(Cn2ncc3ncc(-c4cccc(C(F)F)c4)cc32)c1 [Example 157, 5-[[6-[3-(Difluoromethyl)phenyl]pyrazolo[4,3-b]pyridin-1-yl]methyl]pyridine-3-carbonitrile]
Second: FC(F)c1cccc(-c2cnc3cnn(Cc4cncc(Cl)c4)c3c2)c1 [Example 158, 1-[(5-Chloro-3-pyridyl)methyl]-6-[3-(difluoromethyl)phenyl]pyrazolo[4,3-b]pyridine]
The pIC50 of the first is 0.66 log units lower: 7.19 for the first, 7.85 for the second. The second is the more potent here.
